Test results published in a melting point compilation (Tetko et al.; mined from patent text by program, amines drawn as free bases though some values may be those of a salt).

Row | SMILES | melting point
1 | CN1CCc2cc[nH]c2C(c2ccccc2)C1 (stereo not drawn) | 90 to 91 °C
2 | Cc1c(-c2ccccc2)oc2c(CN(C)CCCl)cccc2c1=O | 118 to 120 °C
3 | Cc1nc2c(OCc3c(Cl)ccc(S(=O)(=O)N4CCC[C@H]4C(=O)NCCCNC(=O)c4ccc(C=NN)cc4)c3Cl)cccn2c1Cl | 115 °C
4 | CCOC(=O)CCC1=C(C#N)C(c2ccccc2Cl)c2c[nH]nc2N1 (stereo not drawn) | 172 to 174 °C
5 | CCN(CC)c1ccc2c(c1)O/C(=C1/Oc3cc(N(CC)CC)ccc3C1=O)C2=O | 292 °C
6 | CC(=O)OC12Oc3cc(C(C)C)ccc3C1(OC(C)=O)C(=O)c1c(N)cccc12 (stereo not drawn) | 201 to 203 °C
7 | COCCNC(=O)c1ccnc(-c2ccc3c(c2)C(c2ccc(Cl)cc2Cl)CC3)c1 (stereo not drawn) | 154 to 155 °C
8 | COc1cc(OC)c(-c2cccs2)cc1/C=C/C(=O)c1ccc(S(=O)(=O)NN2CCCCC2)cc1 | 174 to 176 °C
9 | CC(C)(C)OC(=O)NC[C@H]1CC[C@H](COS(C)(=O)=O)CC1 | 105 to 107 °C
10 | CCS(=O)(=O)Nc1cc2occc(=O)c2cc1Oc1ccccc1 | 216 to 218 °C
11 | N#Cc1ccc(-c2ccc(Cl)nn2)cc1 | 236 to 238 °C
12 | Cc1ncc([N+](=O)[O-])n1CCN(CCCC(C)N(CCn1c([N+](=O)[O-])cnc1C)CCn1c([N+](=O)[O-])cnc1C)CCn1c([N+](=O)[O-])cnc1C (stereo not drawn) | 150 to 151 °C
13 | COc1cc2c3c(c1)c(Cl)c(C(=O)N1CCc4ccccc41)c(=O)n3CCO2 | 158 to 160 °C
14 | CCN1C(=O)C(C(=O)c2cccs2)c2cc(Cl)cnc21 (stereo not drawn) | 111 to 112 °C
15 | COC1=C(OC)C(=O)c2c(Cl)cccc2C1=O | 120 to 121 °C
16 | CN(C)C(=O)C=Cc1ccc(SC2Cc3cc(O)ccc3C3CCC4(C)C(O)CCC4C23)cc1 (stereo not drawn) | 152 to 155 °C
17 | CCOC(=O)C1CC2CC(CP(=O)(O)O)CCC2CN1 (stereo not drawn) | 184 to 185 °C
18 | Cc1cc(NN)c2ccccc2n1 | 195 to 197 °C
19 | CC1(C(=O)O)COC2(CC3CCC2(C)C3(C)C)OC1 (stereo not drawn) | 172 to 175 °C
20 | O=C1NC(=O)C(c2cccc3ccsc23)O1 (stereo not drawn) | 130 to 132 °C
21 | CN(CC(=O)N1CCN(Cc2ccc3c(c2)OCO3)CC1)c1ccc(Oc2ccc(NS(=O)(=O)c3ccc(Cl)c(Cl)c3)cn2)c(F)c1 | 186 to 187 °C
22 | COC(=O)C=C1CN2C(=O)N(c3cc(Cl)cc(Cl)c3)C(=O)C2(Cc2ccc(Br)cc2)C1 (stereo not drawn) | 74.9 °C
23 | CCOC(=O)c1ccc(NCC=Cc2ccccc2)cc1 | 123 to 131 °C
24 | CC(C)C(NS(=O)(=O)c1ccc(Cl)cc1)c1ccc(CCCC(=O)O)cc1 (single isomer, unassigned; (+)) | 117 to 119 °C
25 | CCOC(=O)NC(C)CC(NC(=O)OCC)NC(=O)OCC (stereo not drawn) | 103 to 105 °C

Row | SMILES | melting point
26 | COc1ccc(Cn2c(=O)[nH]c(=O)c3[nH]c(C(C)C)nc32)cc1OC1CCCC1 | 282 to 283 °C
27 | CCOC(=O)C1=Cc2cc(C=O)ccc2OC1C(F)(F)F (stereo not drawn) | 84.3 to 86.2 °C
28 | CN=C(NC#N)NCCSCc1ncccc1Br | 114 to 116 °C
29 | CSc1nnc(SCC2=C(C(=O)O)N3C(=O)C(NC(=O)Cc4csc(=O)s4)C3SC2)s1 (stereo not drawn) | 160 °C
30 | COc1cc(OC)c(-c2cccs2)cc1/C=C/C(=O)c1ccc(S(=O)(=O)NCC(=O)O)cc1 | 100 to 101 °C
31 | O=C(Oc1ccccc1)c1ncn2c1[C@@H]1CCCN1C(=O)c1c(Cl)cccc1-2 | 211 to 212 °C
32 | CC(=O)NCC1CN(c2ccc(N3CC4CCCN(C(=O)CO)C4C3)c(F)c2)C(=O)O1 (stereo not drawn) | 102 to 110 °C
33 | Cn1nc(-c2c(F)cccc2Cl)nc1C(O)c1ccc(Cl)cc1 (stereo not drawn) | 141 to 143 °C
34 | COc1ccc2cccc(Cl)c2c1 | 32 to 34 °C
35 | CCOC(=O)c1cn(CC)c2nc3cc(Cl)c(F)cc3cc2c1=O | 300 to 301 °C
36 | CCOC(=O)c1ccc(C(=O)OCC)c2cc3ccccc3cc12 | 99 to 100 °C
37 | CCCCCC[C@H](CC(=O)OC(C)(C)C)C(=O)N1C(=O)OC[C@@H]1C(C)C | 50 to 51 °C
38 | Nc1ccc(C2=NNC(=O)Cc3cc4c(cc32)OCO4)cc1 | 242 to 244 °C
39 | COc1ccc(-c2csc(C)n2)cc1OC1CC2CCC1C2 (stereo not drawn) | 81 to 82 °C
40 | CC(=O)CN1C(=O)c2ccccc2C12OCCO2 | 91 to 93 °C
41 | CC(CCCc1cccnc1)NC(=O)C(O)c1ccccc1 (stereo not drawn) | 144 to 146 °C
42 | C=CC[Si](C)(C)c1cccc(Cl)c1C(=O)NCC | 61 to 63 °C
43 | C=CCN(CC=C)c1ccc(NCCO)cc1[N+](=O)[O-] | 166 to 170 °C
44 | CCN(CC(=O)O)c1ccc(OCC(C)(C)C)c(C#N)c1 | 78 °C
45 | COCCCCCC=C(NC(=O)C1CC1(C)C)C(=O)O (stereo not drawn) | 71 to 72 °C
46 | COc1ccc(C(C)=NOCCOc2ccc(CC3SC(=O)NC3=O)cc2)cn1 (stereo not drawn) | 148 to 149 °C
47 | CCOC(=O)c1ncc(Cn2c(NC3CCN(C(=O)OCC)CC3)nc3ccccc32)o1 | 132 °C
48 | CCCCn1c(=O)c2c(NC)n[nH]c2n(Cc2ccc(Cl)cc2)c1=O | 292 to 294 °C
49 | CC1CCC2(CC1)OCCN2C(=O)C(Cl)Cl (stereo not drawn) | 119 to 120 °C
50 | N#Cc1cnn(-c2c(Cl)cc(C(F)(F)F)c(Cl)c2Cl)c1N | 186 to 187 °C

Row | SMILES | melting point
51 | CSSc1ccc([N+](=O)[O-])cc1C(Cl)(Cl)Cl | 76 °C
52 | Clc1cc(Cl)c(C(Cl)Cl)nc1Cl | 61 to 62 °C
53 | O=C(c1ccccc1)N(c1ccccc1)c1ccc(OCc2ccccc2)cc1 | 141 to 143 °C
54 | CCOC(=O)c1csc(NC(=O)c2cccc(C#N)c2)n1 | 203 to 204 °C
55 | CC(C)CC(=O)Nc1cccc(-c2ccnc3c(-c4cccc(CN5CCN(C)CC5)c4)cnn23)c1 | 135 to 138 °C
56 | O=C1Nc2cc(CN3CC=C(c4ccc(Cl)cc4)CC3)cnc2N2CCC[C@@H]12 | 234 to 235 °C
57 | CCOC(=O)/C=C/c1cn(Cc2ccc(OCc3nc(-c4ccccc4)oc3C)cc2)nc1OCc1ccc(OCc2nc(-c3ccccc3)oc2C)cc1 | 148 to 149 °C
58 | O=[N+]([O-])c1cc(Cl)cc2c1OC[C@H](CO)O2 | 83 to 88 °C
59 | CNCCC1=C(C#N)C(c2cccc3nonc23)c2c[nH]nc2N1 (stereo not drawn) | 174 °C
60 | CNC(=N[N+](=O)[O-])NCc1cnc(Br)s1 | 170 °C
61 | COc1cc2c(cc1F)C(CCCN1CCN(C)CC1)(c1ccccc1F)C(=O)N2S(=O)(=O)c1ccc(OC(C)C)cc1 (stereo not drawn) | 72 °C
62 | CN(O)C(=O)C=Cc1ccc(Cl)c(O)c1 | 196 °C
63 | COc1cc2cc3c(N)c(C(N)=O)sc3nc2cc1OC | 278 to 280 °C
64 | CN(c1cccc2cc(C3=NCC(CC(=O)N4CCOCC4)S3)[nH]c12)S(=O)(=O)c1cccs1 (stereo not drawn) | 173 to 174 °C
65 | O=C(CCCCN1CCCCC1)c1ccc2c(c1)Cc1cc(C(=O)CCCCN3CCCCC3)ccc1S2 | 98.5 to 99.5 °C
66 | Cc1ccnc(NC(=O)c2c(-c3ccc(F)cc3)c(-c3ccc(F)cc3)cn2C(C)C)n1 | 165 to 166 °C
67 | O=C(Nc1ccc(-n2nc(-c3cncc(Br)c3)cc2OC(F)F)cc1)c1ccncc1F | 179 to 180 °C
68 | NC(=O)CN1C(=O)C[C@@H]2CCC[C@@H]21 (relative stereo) | 142 to 144 °C
69 | CN1C(=S)C(c2ccc(OC(F)(F)F)cc2)(c2cccc(-c3cccnc3F)c2)N=C1N (stereo not drawn) | 89 to 99 °C
70 | COc1ccc(COC(=O)CC(=O)Oc2ccc(-c3cn4c(n3)sc3ccccc34)cc2)cc1 | 117 to 119 °C
71 | COc1ccccc1-c1c(O)c2ccc(Cl)cc2[nH]c1=O | > 300 °C
72 | CCN(CC)CC1CCCCN1C(=O)c1ccc(-c2[nH]nc3c2C(=O)c2c(NC(=O)NN4CCOCC4)cccc2-3)s1 (stereo not drawn) | 210 to 212 °C
73 | O=C1NC(=O)C(Cc2ccc3c(c2)CN(c2ccccn2)CCO3)S1 (stereo not drawn) | 180 to 181 °C
74 | O=[N+]([O-])c1cnccc1NCCCCO | 80 to 82 °C
75 | NC(=O)NN=Cc1ccc(OCc2ccccc2F)cc1 | 211 to 212 °C

Row | SMILES | melting point
76 | CSc1nn2c(N3CCN(C)CC3)cc(C)nc2c1S(=O)(=O)c1ccccc1 | 209 to 210 °C
77 | CCCN(CCC)C(=O)Cc1ccc(O)c([N+](=O)[O-])c1 | 55 to 57 °C
78 | N#CCCOC(=O)C=C1C=C(c2ccccc2)S(=O)(=O)C(c2ccccc2)=C1 | 156 to 157 °C
79 | Cc1ccc2c(c1)NC(NC(C)C)=NS2(=O)=O | 137 to 139 °C
80 | CCCc1ccc(-c2ccc(-c3cccs3)c(F)c2)cc1 | 88 °C
81 | Cn1ncc2c1-c1c(Oc3cccnc3OCCN3CCCC3=O)sc(C(=O)O)c1CC2 | 202 to 204 °C
82 | Cc1ccc(-c2n[nH]cc2-c2ccnc(Cl)n2)cc1 | 194 to 197 °C
83 | COc1ccc(F)c(-n2c(=O)[nH]c3c(C(N)=O)nc(-c4cccc(O)c4)nc32)c1 | > 260 °C
84 | O=[N+]([O-])c1cnc(N2CCN3CCC2CC3)nc1 | 135 to 139 °C
85 | COC(=O)Cc1ccc(OCC2CN(c3ccc(C#N)cc3)C(=O)O2)cc1 (stereo not drawn) | 114 to 115 °C
86 | CC(O)=C(C#N)C(=O)Nc1cc(Br)ccc1Br | 148 to 150 °C
87 | COc1cc(N)c(Cl)cc1C(=O)NCC1CCN(CCCCCC(=O)c2cccs2)CC1 | 115 to 118 °C
88 | CN1CCC(C(=O)O)(S(=O)(=O)c2ccc(Oc3ccc(Cl)cc3)cc2)CC1 | 185 °C
89 | CCOP(=O)(/C=C/c1cn(-c2ccccc2)nc1OCc1ccc(OCc2nc(-c3cccc(C(=O)O)c3)oc2C)c(OC)c1)OCC | 148 to 149 °C
90 | Cc1ccc(-c2ccc(C(=O)CBr)cc2)cc1 | 120 to 122 °C
91 | CCCC(Oc1ccc2c(-c3ccc(Cl)cc3)noc2c1)C(=O)O (stereo not drawn) | 170 °C
92 | COCCc1nc2c(N)nc3cc(-c4ccccc4)ccc3c2n1CCCCNS(C)(=O)=O | 201 to 202 °C
93 | O=C(CN1C(=O)C2(COc3cc4c(cc32)CCO4)c2cc(Cl)ccc21)Nc1ccccc1F (stereo not drawn) | 229 to 230 °C
94 | COCCO[C@@H]1c2ccn3c(C)c(C)nc3c2N[C@H](c2ccccc2)[C@H]1OC(=O)CCCCBr | 98.6 °C
95 | Brc1ccc(OC2CN(C(c3ccccc3)c3ccccc3)C2)cc1 | 116 to 117 °C
96 | CC1NC(=O)NN=C1c1cccc(Cl)c1 (stereo not drawn) | 206 to 208 °C
97 | Cc1cc(F)cnc1Cl | 38 to 40 °C
98 | O=c1ccc(-c2c(-c3ccccc3)nn3ccccc23)nn1C1CCNCC1 | 115 to 117 °C
